Reference: US12129221B2, “Difluoro phenyl amide RIP1 inhibitor” (SIRONAX LTD, priority 2018, dated 2024)

Legend:
[1] = Hepatocyte stability, mouse; format: in vitro ADME; conditions: mouse, hepatocytes, read-out: Mouse T1/2
Excerpt: (§1) Representative Metabolic Stability Data II, +, Extrapolated.

[2] = PK in rat; design: species or system SD rat; conditions: Sprague-Dawley, in vivo; for half-life / bioavailability: rat
Excerpt: Representative PK Date of Pro-Drug Compounds

[3] = Hepatocyte stability, rat; format: in vitro ADME; conditions: rat, hepatocytes, read-out: Rat T1/2
Excerpt: as §1

[4] = PK in dog; conditions: in vivo
[5] = Hepatocyte Stability, comparison table
[6] = po, 60 mg/kg, SD rat, dose 60 mg/Kg micropower

CCC(C)(C)C(=O)N(O)Cc1cc(F)cc(F)c1 [Compound 13, N-(3,5-difluorobenzyl)-N-hydroxy-2,2-dimethylbutanamide]
half-life [1, 5]: 0.333 h
half-life ([1]; Hepatocyte stability): 0.335 h
AUC(0-inf) ([2]; Rat, IV 2 mg/kg): 540 ng·h/mL
clearance ([2]; Rat, IV 2 mg/kg): 61.7 mL/min/kg
Vd ([2]; Rat, IV 2 mg/kg, read-out: Vdss): 1.9 L/kg
AUC(0-inf) ([2]; Rat, PO 20 mg/kg): 1580 ng·h/mL
Cmax ([2]; Rat, PO 20 mg/kg): 1570 ng/mL
AUC(0-inf) ([2]; Rat, PO 60 mg/kg): 7520 ng·h/mL
Cmax ([2]; Rat, PO 60 mg/kg): 4910 ng/mL
AUC ([2]; SD rat, PO, dose 60 mg/Kg micropower): 7520 ng·h/mL
half-life ([2]; iv, 2 mg/kg, IV 2 mg/kg): 0.59 h
bioavailability ([2]; po, 20 mg/kg, PO 20 mg/kg): 39.4%
half-life ([2]; po, 20 mg/kg, PO 20 mg/kg): 1.4 h
bioavailability ([2]; po, 60 mg/kg, PO 60 mg/kg): 62.8%
half-life ([2]; po, 60 mg/kg, PO 60 mg/kg): 1.2 h
bioavailability [2, 6]: 62.8%
half-life [2, 6]: 1.17 h
half-life [3, 5]: 0.467 h
half-life ([3]; Hepatocyte stability): 0.467 h
AUC(0-inf) ([4]; IV 2 mg/kg): 1840 ng·h/mL
clearance ([4]; IV 2 mg/kg): 18.5 mL/min/kg
half-life ([4]; IV 2 mg/kg): 1.02 h
Vd ([4]; IV 2 mg/kg, read-out: Vdss): 0.73 L/kg
AUC(0-inf) ([4]; PO 10 mg/kg): 1320 ng·h/mL
Cmax ([4]; PO 10 mg/kg): 981 ng/mL
bioavailability ([4]; PO 10 mg/kg): 14.9%
half-life ([4]; PO 10 mg/kg): 7.15 h
AUC(0-inf) ([4]; PO 60 mg/kg): 2050 ng·h/mL
Cmax ([4]; PO 60 mg/kg): 938 ng/mL
bioavailability ([4]; PO 60 mg/kg): 4.06%
half-life ([4]; PO 60 mg/kg): 5.65 h
AUC(0-inf) ([4]; PO 150 mg/kg): 7230 ng·h/mL
Cmax ([4]; PO 150 mg/kg): 2440 ng/mL
bioavailability ([4]; PO 150 mg/kg): 5.33%
half-life ([4]; PO 150 mg/kg): 11.9 h
